Source: patent publication US20110212972A1, “Compositions and Methods for Treating Female Sexual Dysfunction” (Pfizer Inc, priority 2000, published 2011)

Columns and labels:
MCF-7 cells = test: Inhibition of in vitro human breast tumor cell growth, ER-positive MCF-7; type: cell-based; settings: MCF-7 (ER-positive), 6 days incubation, direct cell counts
Protocol: (§1) The in vitro antiproliferative effects of (−)-cis-6-phenyl-5-[4-(2-pyrrolidin-1-yl-ethoxy)-phenyl]-5,6,7,8-tetrahydro-naphthalene-2-ol (PPTN) were tested using two types of human breast cancer cell lines: first, MCF-7 cells, which contain ER as well as progesterone receptors (PgR), and second, MDA-MB-231 cells, which lack ER and PgR, and enable the determination of an effect that is independent of the ER mechanism. The effect of PPTN on the growth of these different cell lines was determined by incubation of the cells with various compound concentrations for 6 days.
(§2) The antiproliferative effects were then determined by direct cell counts.

MDA-MB-231 cells = test: Inhibition of in vitro human breast tumor cell growth, ER-negative MDA-MB-231; type: cell-based; settings: MDA-MB-231 (ER-negative), 6 days incubation, direct cell counts
Protocol: as §1, §2

IC50 for growth inhibition (MCF-7 cells): 3 to 5×10^−11 M
Compound: Oc1ccc2c(c1)CC[C@H](c1ccccc1)[C@@H]2c1ccc(OCCN2CCCC2)cc1 [PPTN, (−)-cis-6-phenyl-5-[4-(2-pyrrolidin-1-yl-ethoxy)-phenyl]-5,6,7,8-tetrahydro-naphthalene-2-ol]
effect on cell growth (MCF-7 cells): inhibited the growth | effect on cell proliferation (MDA-MB-231 cells): did not inhibit cell proliferation
